# Measurements as given in patent publication US20250099478A1, “PLASMA KALLIKREIN INHIBITORS” (Merck Sharp & Dohme LLC, priority 2022, published 2025).
# Experiments:
# [1] = target: T1, Human plasma kallikrein (Homo sapiens, UniProt P03952); test: Plasma Kallikrein Assay; type: biochemical; settings: purified Human plasma kallikrein 0.5 nM, substrate Acetyl-K-P-R-AFC; read-out: PKal IC50
# T1 construct: yields a heavy chain (371 amino acids) and a light chain (248 amino acids); purchased Enzyme Research Laboratories
# Outline: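 Purified human plasma kallikrein (0.5 nM) hydrolysing fluorogenic Acetyl-K-P-R-AFC ([…]) in 50 mM HEPES pH 7.4, 150 mM NaCl, 5 mM CaCl2, 0.1% PEG 8000, at rt or 37 °C after enzyme–inhibitor equilibration. IC50 from four-parameter logistic fit; Ki via Cheng–Prusoff.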
# [2] = target: T2, human factor XIa (Homo sapiens, UniProt P03951); test: Factor XIa Assay; type: biochemical; settings: human factor XIa 0.04 nM, substrate GPR-AFC, 25° C.
# T2 construct: with human (0.04 nM) factor XIa
# Procedure: The effectiveness of a compound of the present invention as an inhibitor of Coagulation factor XIa can be determined using a relevant purified serine protease, and an appropriate synthetic substrate. The rate of hydrolysis of the chromogenic or fluorogenic substrate by the relevant serine protease was measured both in the absence and presence of compounds of the present invention. Assays were conducted at rt or at 37° C. […] A decrease in the rate of fluorescence change in the presence of inhibitor is indicative of enzyme inhibition. Such methods are known to one skilled in the art. The results of this assay are expressed as the half-maximal inhibitory concentrations (IC50), or the inhibitory constant, Ki.
# Compounds were pre-incubated for 30 min at 25° C. with human (0.04 nM) factor XIa in 50 mM HEPES buffer with 150 mM sodium chloride, 5 mM calcium chloride, 0.1% PEG 8000, pH 7.4. factor XIa enzymatic activity was determined by addition of the substrate glycine-proline-arginine-7-amido-4-trifluoromethylcoumarin (GPR-AFC) and measurement of the fluorescence at 400/505 nm after a 60 min incubation at 25° C. The % inhibition for each data point was calculated from the data and analyzed using the log (inhibitor) vs. response four parameters equation to determine the half-maximal inhibitory concentrations (IC50). The IC50 were converted to equilibrium inhibitory constants (Ki) using the Cheng-Prusoff equation.
# T1 sequence (P03952 391-638 limits assumed): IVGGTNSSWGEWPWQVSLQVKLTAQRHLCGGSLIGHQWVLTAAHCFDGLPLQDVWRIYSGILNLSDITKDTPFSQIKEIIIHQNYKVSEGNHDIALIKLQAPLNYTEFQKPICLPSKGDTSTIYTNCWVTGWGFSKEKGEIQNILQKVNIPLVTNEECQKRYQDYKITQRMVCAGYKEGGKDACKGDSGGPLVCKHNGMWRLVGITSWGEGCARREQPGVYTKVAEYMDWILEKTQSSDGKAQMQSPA
# T1 sequence (P03952 20-390 partner limits assumed): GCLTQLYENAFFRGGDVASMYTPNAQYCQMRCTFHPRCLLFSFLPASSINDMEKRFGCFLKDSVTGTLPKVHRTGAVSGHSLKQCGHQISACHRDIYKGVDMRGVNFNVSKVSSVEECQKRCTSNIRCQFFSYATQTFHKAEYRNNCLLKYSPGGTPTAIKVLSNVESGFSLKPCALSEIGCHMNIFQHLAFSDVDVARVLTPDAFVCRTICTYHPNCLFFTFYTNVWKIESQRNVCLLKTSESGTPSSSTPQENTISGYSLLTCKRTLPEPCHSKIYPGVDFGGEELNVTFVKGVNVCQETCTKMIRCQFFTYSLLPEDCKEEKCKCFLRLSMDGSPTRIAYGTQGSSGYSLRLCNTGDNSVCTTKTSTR
# T2 sequence (P03951 388-625 limits assumed): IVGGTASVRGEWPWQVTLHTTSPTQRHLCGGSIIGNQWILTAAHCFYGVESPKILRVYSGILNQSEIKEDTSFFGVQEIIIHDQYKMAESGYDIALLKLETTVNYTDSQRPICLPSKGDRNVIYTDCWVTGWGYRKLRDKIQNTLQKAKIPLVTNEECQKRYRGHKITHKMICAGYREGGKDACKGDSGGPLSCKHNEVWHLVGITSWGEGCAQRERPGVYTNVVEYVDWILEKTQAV
# T2 sequence (P03951 19-387 partner limits assumed): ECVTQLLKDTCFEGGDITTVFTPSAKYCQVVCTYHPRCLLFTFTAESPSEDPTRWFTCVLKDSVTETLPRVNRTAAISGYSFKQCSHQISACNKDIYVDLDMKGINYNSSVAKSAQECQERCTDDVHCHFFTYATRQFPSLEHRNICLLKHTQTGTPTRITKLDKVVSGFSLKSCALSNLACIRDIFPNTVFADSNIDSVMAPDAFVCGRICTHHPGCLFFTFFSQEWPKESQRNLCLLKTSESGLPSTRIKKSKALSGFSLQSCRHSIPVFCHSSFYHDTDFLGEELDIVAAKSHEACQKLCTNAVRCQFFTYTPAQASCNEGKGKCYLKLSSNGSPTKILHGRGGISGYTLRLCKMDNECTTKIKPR
SMILES,IC50 [1] [nM],IC50 [2] [nM]
"CCC(c1ccc2[nH]ncc2c1)n1cc(C(=O)N2CCC[C@@]3(C2)OC(=O)Nc2ccc(Cl)c(F)c23)cn1 (single isomer, unassigned) [Example 40]",7.1,1000
"CCC(c1ccc2ncncc2c1)n1cc(C(=O)N2CCC[C@@]3(C2)OC(=O)Nc2ccc(Cl)c(F)c23)cn1 (single isomer, unassigned) [Example 42]",14.1,5230
"CCC(c1c(C)noc1C)n1cc(C(=O)N2CCC[C@@]3(C2)OC(=O)Nc2ccc(Cl)c(F)c23)cn1 (single isomer, unassigned) [Example 43]",27.1,4670
"CCC(c1c(C)noc1C)n1cc(C(=O)N2CCC[C@@]3(C2)OC(=O)Nc2ccc(Cl)c(F)c23)cn1 (single isomer, unassigned) [Example 44]",5.9,2420
"CCC(c1cc(C)c2nc[nH]c2c1)n1cc(C(=O)N2CCC[C@@]3(C2)OC(=O)Nc2ccc(Cl)c(F)c23)cn1 (single isomer, unassigned) [Example 45, (4R)-6-Chloro-5-fluoro-1′-(1-((R or S)-1-(4-methyl-1H-benzo[d]imidazol-6-yl)propyl)-1H-pyrazole-4-carbonyl)spiro[benzo[d][1,3]oxazine-4,3′-piperidin]-2(1H)-one]",0.8,1420
"CCC(c1cc(C)c2nc[nH]c2c1)n1cc(C(=O)N2CCC[C@@]3(C2)OC(=O)Nc2ccc(Cl)c(F)c23)cn1 (single isomer, unassigned) [Example 46, (4R)-6-Chloro-5-fluoro-1′-(1-((S or R)-1-(4-methyl-1H-benzo[d]imidazol-6-yl)propyl)-1H-pyrazole-4-carbonyl)spiro[benzo[d][1,3]oxazine-4,3′-piperidin]-2(1H)-one]",1.2,846
"CCC(c1ccc(F)cc1)c1c[nH]c(C(=O)N2CC[C@@]3(C2)OC(=O)Nc2ccc(Cl)c(F)c23)n1 (single isomer, unassigned) [Example 66, (4R)-6-Chloro-5-fluoro-1′-(4-((S or R)-1-(4-fluorophenyl)propyl)-1H-imidazole-2-carbonyl)spiro[benzo[d][1,3]oxazine-4,3′-pyrrolidin]-2(1H)-one]",32.5,1360
"CCC(c1ccc(F)cc1)c1c[nH]c(C(=O)N2CCC[C@@]3(C2)OC(=O)Nc2ccc(Cl)c(F)c23)n1 (single isomer, unassigned) [Example 71, (R)-6-Chloro-5-fluoro-1′-(4-((R or S)-1-(4-fluorophenyl)propyl)-1H-imidazole-2-carbonyl)spiro[benzo[d][1,3]oxazine-4,3′-piperidin]-2(1H)-one]",5.5,995
"CCC(c1ccc(F)cc1)c1c[nH]c(C(=O)N2CCC[C@@]3(C2)OC(=O)Nc2ccc(Cl)c(F)c23)n1 (single isomer, unassigned) [Example 72, (R)-6-Chloro-5-fluoro-1′-(4-((S or R)-1-(4-fluorophenyl)propyl)-1H-imidazole-2-carbonyl)spiro[benzo[d][1,3]oxazine-4,3′-piperidin]-2(1H)-one]",9.3,1430
"CCC(c1ccnc(C(F)(F)F)c1)c1c[nH]c(C(=O)N2CCC[C@@]3(C2)OC(=O)Nc2ccc(Cl)c(F)c23)n1 (single isomer, unassigned) [Example 73, (R)-6-Chloro-5-fluoro-1′-(4-((R or S)-1-(2-(trifluoromethyl)pyridin-4-yl)propyl)-1H-imidazole-2-carbonyl)spiro[benzo[d][1,3]oxazine-4,3′-piperidin]-2(1H)-one]",8.2,2050
"CCC(c1ccnc(C(F)(F)F)c1)c1c[nH]c(C(=O)N2CCC[C@@]3(C2)OC(=O)Nc2ccc(Cl)c(F)c23)n1 (single isomer, unassigned) [Example 74, (R)-6-Chloro-5-fluoro-1′-(4-((S or R)-1-(2-(trifluoromethyl)pyridin-4-yl)propyl)-1H-imidazole-2-carbonyl)spiro[benzo[d][1,3]oxazine-4,3′-piperidin]-2(1H)-one]",10.8,2750
"COC1(CC(c2ccccc2)c2c[nH]c(C(=O)N3CCC[C@@]4(C3)OC(=O)Nc3ccc(Cl)c(F)c34)n2)CC1 (single isomer, unassigned) [Example 75, (R)-6-Chloro-5-fluoro-1′-(4-((R or S)-2-(1-methoxycyclopropyl)-1-phenylethyl)-1H-imidazole-2-carbonyl)spiro[benzo[d][1,3]oxazine-4,3′-piperidin]-2(1H)-one]",5.7,322
"O=C1Nc2ccc(Cl)c(F)c2[C@@]2(CCCN(C(=O)c3cnc(C(O)c4ccc(F)cc4)[nH]3)C2)O1 (single isomer, unassigned) [Example 78]",13.7,3850
"CC[C@@H](c1ccc(F)cc1)c1ncc(C(=O)N2CCC[C@@]3(C2)OC(=O)Nc2ccc(Cl)c(F)c23)[nH]1 (single isomer, unassigned) [Example 79]",1.7,194
"CC[C@H](c1ccc(F)cc1)c1ncc(C(=O)N2CCC[C@@]3(C2)OC(=O)Nc2ccc(Cl)c(F)c23)[nH]1 (single isomer, unassigned) [Example 80]",1.9,179
"O=C1Nc2ccc(Cl)c(F)c2[C@@]2(CCCN(C(=O)c3cnc(C(c4ccc(F)cc4)C(F)(F)F)[nH]3)C2)O1 (single isomer, unassigned) [Example 82]",42.5,7390

SMILES,IC50 [1] [nM],IC50 [2] [nM]
"O=C1Nc2ccc(Cl)c(F)c2[C@@]2(CCCN(C(=O)c3cnc(C(c4ccc(F)cc4)C(F)(F)F)[nH]3)C2)O1 (single isomer, unassigned) [Example 83]",21.3,2700
"CC[C@H](c1ccc(F)cc1)c1nnc(C(=O)N2CCC[C@@]3(C2)OC(=O)Nc2ccc(Cl)c(F)c23)[nH]1 (single isomer, unassigned) [Example 85]",16.7,3110
"CCC(c1ccc(F)c(Cl)c1)c1nnc(C(=O)N2CCC[C@@]3(C2)OC(=O)Nc2ccc(Cl)c(F)c23)[nH]1 (single isomer, unassigned) [Example 96]",3.5,5080
"CCC(c1ccc(F)c(Cl)c1)c1nnc(C(=O)N2CCC[C@@]3(C2)OC(=O)Nc2ccc(Cl)c(F)c23)[nH]1 (single isomer, unassigned) [Example 97]",13.8,8750
"O=C1Nc2ccc(Cl)c(F)c2[C@@]2(CCCN(C(=O)c3nnc(C(CC(F)(F)F)c4ccccc4)[nH]3)C2)O1 (single isomer, unassigned) [Example 98]",1.3,362
"O=C1Nc2ccc(Cl)c(F)c2[C@@]2(CCCN(C(=O)c3nnc(C(CC(F)(F)F)c4ccccc4)[nH]3)C2)O1 (single isomer, unassigned) [Example 99]",9.7,1370
"O=C1Nc2ccc(Cl)c(F)c2[C@@]2(CCCN(C(=O)c3nnc(C(CC(F)(F)F)c4cccc(Cl)c4)[nH]3)C2)O1 (single isomer, unassigned) [Example 100]",2.2,1450
"O=C1Nc2ccc(Cl)c(F)c2[C@@]2(CCCN(C(=O)c3nnc(C(CC(F)(F)F)c4cccc(Cl)c4)[nH]3)C2)O1 (single isomer, unassigned) [Example 101]",10.4,4010
"CCC(c1ccc(F)cc1)c1nnc(C(=O)N2CC(C)(C)C[C@@]3(C2)OC(=O)Nc2ccc(Cl)c(F)c23)[nH]1 (single isomer, unassigned) [Example 102]",3.6,1130
"CCC(c1ccc(F)cc1)c1nnc(C(=O)N2CC(C)(C)C[C@@]3(C2)OC(=O)Nc2ccc(Cl)c(F)c23)[nH]1 (single isomer, unassigned) [Example 103]",7,1950
"O=C1Nc2ccc(Cl)c(F)c2[C@@]2(CCCN(C(=O)c3nnc(C(Cc4ccccc4)c4ccccc4)[nH]3)C2)O1 (single isomer, unassigned) [Example 104]",16.6,2990
"O=C1Nc2ccc(Cl)c(F)c2[C@@]2(CCCN(C(=O)c3nnc(C(Cc4ccccc4)c4ccccc4)[nH]3)C2)O1 (single isomer, unassigned) [Example 105]",17.3,3600
"O=C1Nc2ccc(Cl)c(F)c2[C@@]2(CCCN(C(=O)c3nnc(C(c4ccccc4)C4CC4)[nH]3)C2)O1 (single isomer, unassigned) [Example 106]",1.6,795
"O=C1Nc2ccc(Cl)c(F)c2[C@@]2(CCCN(C(=O)c3nnc(C(c4ccccc4)C4CC4)[nH]3)C2)O1 (single isomer, unassigned) [Example 107]",11.2,1910
"CCC(c1ccc2c(c1)COC2)c1nnc(C(=O)N2CCC[C@@]3(C2)OC(=O)Nc2ccc(Cl)c(F)c23)[nH]1 (single isomer, unassigned) [Example 111]",3.8,2820
